Reference: the NIST ThermoML archive (doi:10.1016/j.jct.2014.07.010)
± gives the expanded uncertainty stated by the source.

Assay: osmotic coefficient (dimensionless); mn = molality of the nth substance listed, in mol/kg
Settings: 298.15 K, Liquid, isopiestic method

O=S(=O)([O-])[O-].[K+].[K+] [potassium sulfate] + O
Settings	osmotic coefficient
m1 = 0.4526	0.693 ± 0.015
m1 = 0.4667	0.692 ± 0.015
m1 = 0.4747	0.691 ± 0.015
m1 = 0.5108	0.686 ± 0.016
m1 = 0.5495	0.682 ± 0.016
m1 = 0.5708	0.68 ± 0.016
m1 = 0.6064	0.677 ± 0.016
m1 = 0.6321	0.675 ± 0.016
m1 = 0.6366	0.673 ± 0.016
m1 = 0.6529	0.673 ± 0.016
